Assay results published in patent US20240116845A1, “INDENE COMPOUNDS, PHARMACEUTICAL COMPOSITIONS THEREOF, AND THEIR THERAPEUTIC APPLICATIONS” (NucMito Pharmaceuticals Co., Ltd., priority 2021, published 2024).

How the values were obtained:
Assay type in all cases: cell-based
[1] = tested on: alpha-smooth muscle actin (α-SMA); assay: Inhibition of TGF-β induced expression of alpha-smooth muscle actin in CFSC cells (western blot); details: compound at 10 μM, TGF-β (10 ng/mL), 24 hours
Method: The ability of a compound to inhibit the TGF-β induced expression of alpha-smooth muscle actin (α-SMA) was evaluated in CCl4-treated fat storing (CFSC) cells. α-SMA is considered as a reliable marker of hepatic stellate cell activation and a key biomarker for liver fibrosis.
CFSC cells maintained in a DMEM medium supplemented with 10% fetal bovine serum were seeded to 12-well culture dishes and grown to a confluence of 60-70% the next day. Culture was changed to a serum-free DMEM medium and the cells were treated with the compound at 10 μM in the presence of TGF-β (10 ng/mL). The cells were incubated for another 24 hours. All culture was maintained at 37° C. in 5% carbon dioxide.
An NP-40 lysate solution (50 mM Tris, pH 7.4, 150 mM NaCl, 1% NP-40) with EDTA free cocktail added was used to lyse the cells on ice for 30 min. The lysate was collected and centrifuged at 4° C. for 10 min at 12,000 rpm. The pellet was discarded and the supernatant was transferred to a new tube. The cell lysate was loaded with 5× loading buffer and boiled for 10 min, resolved by 10% SDS-polyacrylamide gel electrophoresis (SDS-PAGE), and transferred to a PVDF membrane. The membrane was blocked with 5% skim milk in Tris-buffered saline and TWEEN® 20 (TBST; 10 mM Tris-HCl, pH 8.0, 150 mM NaCl, 0.1% TWEEN® 20) for 1 h at room temperature and then incubated with α-SMA and β-actin antibodies overnight at 4° C. After washing twice with TBST, the membrane was probed with a […] anti-immunoglobulin (1:5000 dilution) for 1 h at room temperature. After two subsequent rinses in TBST, immunoreactive products were reacted with ECL and visualized by a UVP CHEMSTUDIO™ imaging system. The western blotting bands are quantitated using an ImageJ software. The percentage of inhibition was obtained by calculating the percentage decrease in the band intensity compared to the one treated with TGF-β only.
The results are summarized in Table 1, where A represents a value no less than 80/% inhibition, B represents a value less than 80% but no less than 50% inhibition, C represents a value less than 50% but no less than 30% inhibition, and D represents a value less than 30% inhibition with a compound at 10 μM.

[2] = tested on: A431 (epidermoid carcinoma); assay: Antiproliferative activity, CCK-8 cell viability; details: Homo sapiens, A-431, 72 h, read-out: Inhibition of Cancerous Cells, A431; for inhibition at 3.3 µM: compound concentration of 3.3 μM; for inhibition at 10 µM: compound concentration of 10 μM; for inhibition at 30 µM: compound concentration of 30 μM
Method: (§1) The antiproliferative activity of a compound was determined in the following cell lines: MDA-MB-231 (breast cancer), HepG2 (liver cancer), SW480 (colon cancer), B16F10 (malignant melanoma), A431 (epidermoid carcinoma), A549 (lung adenocarcinoma), and HeLa (cervical cancer). MDA-MB-231, HepG2, SW480, B16F10, and A431 cells were cultured in Dulbecco's modified Eagle's medium (DMEM) containing 10% fetal bovine serum (FBS). HeLa cells were cultured in MEM/EBSS (MEM) containing 10% FBS. A549 cells were maintained in Kaighn's modification of Ham's F-12 medium containing 10% FBS. The Cell Counting Kit-8 (CCK-8) assay was used to determine the cell viability of cells following treatment with the compound.
(§2) Briefly, cells were seeded in a 96-well plate at a density of 2,000-5,000 cells/well. Following attachment, the cells were treated with the compound in media at a compound concentration of 3.3 μM, 10 μM, or 30 μM, or DMSO as a control. After the cells were incubated at 37° C. for 72 h, the CCK-8 solution (10 μL) was added to each well. After incubation at 37° C. for 4 h, the absorbance value of each well was determined using a multi-well plate reader at 450 nm. The percentage of cell viability was determined with respect to the DMSO-treated cells. The results were summarized in Table 2-4 below, wherein A represents no less than 50% inhibition of cell growth; B represents less than 50% but no less than 30% inhibition of cell growth; C represents less than 30% inhibition of cell growth.

[3] = tested on: A549 (lung adenocarcinoma); assay: Antiproliferative activity, CCK-8 cell viability; details: Homo sapiens, 72 h, read-out: Inhibition of Cancerous Cells, A549; for inhibition at 3.3 µM: compound concentration of 3.3 μM; for inhibition at 10 µM: compound concentration of 10 μM; for inhibition at 30 µM: compound concentration of 30 μM
Method: as §1, §2

[4] = tested on: B16F10 (malignant melanoma); assay: Antiproliferative activity, CCK-8 cell viability; details: Mus musculus, B16-F10, 72 h, read-out: Inhibition of Cancerous Cells, B16F10; for inhibition at 3.3 µM: compound concentration of 3.3 μM; for inhibition at 10 µM: compound concentration of 10 μM; for inhibition at 30 µM: compound concentration of 30 μM
Method: as §1, §2

[5] = tested on: HeLa (cervical cancer); assay: Antiproliferative activity, CCK-8 cell viability; details: Homo sapiens, 72 h, read-out: Inhibition of Cancerous Cells, HELA; for inhibition at 3.3 µM: compound concentration of 3.3 μM; for inhibition at 10 µM: compound concentration of 10 μM; for inhibition at 30 µM: compound concentration of 30 μM
Method: as §1, §2

[6] = tested on: HepG2 (liver cancer); assay: Antiproliferative activity, CCK-8 cell viability; details: Homo sapiens, 72 h, read-out: Inhibition of Cancerous Cells, HepG2; for inhibition at 3.3 µM: compound concentration of 3.3 μM; for inhibition at 10 µM: compound concentration of 10 μM; for inhibition at 30 µM: compound concentration of 30 μM
Method: as §1, §2

[7] = tested on: MDA-MB-231 (breast cancer); assay: Antiproliferative activity, CCK-8 cell viability; details: Homo sapiens, 72 h, read-out: Inhibition of Cancerous Cells, MDA-MB-231; for inhibition at 3.3 µM: compound concentration of 3.3 μM; for inhibition at 10 µM: compound concentration of 10 μM; for inhibition at 30 µM: compound concentration of 30 μM
Method: as §1, §2

[8] = tested on: SW480 (colon cancer); assay: Antiproliferative activity, CCK-8 cell viability; details: Homo sapiens, 72 h, read-out: Inhibition of Cancerous Cells, SW480; for inhibition at 3.3 µM: compound concentration of 3.3 μM; for inhibition at 10 µM: compound concentration of 10 μM; for inhibition at 30 µM: compound concentration of 30 μM
Method: as §1, §2

SMILES	inhibition at 10 µM [1] [%]	inhibition at 3.3 µM [2] [%]	inhibition at 10 µM [2] [%]	inhibition at 30 µM [2] [%]	inhibition at 3.3 µM [3] [%]	inhibition at 10 µM [3] [%]	inhibition at 30 µM [3] [%]	inhibition at 3.3 µM [4] [%]	inhibition at 10 µM [4] [%]	inhibition at 30 µM [4] [%]	inhibition at 3.3 µM [5] [%]	inhibition at 10 µM [5] [%]	inhibition at 30 µM [5] [%]	inhibition at 3.3 µM [6] [%]	inhibition at 10 µM [6] [%]	inhibition at 30 µM [6] [%]	inhibition at 3.3 µM [7] [%]	inhibition at 10 µM [7] [%]	inhibition at 30 µM [7] [%]	inhibition at 3.3 µM [8] [%]	other results
CC1=C(CC(=O)O)c2cc(F)ccc2/C1=C\c1ccc(Cc2ccc(F)cc2)cc1 [Compound A3, 2-[(1Z)-5-Fluoro-2-methyl-1-({4-[4-fluorobenzyl]phenyl}methylidene)-1H-inden-3-yl]acetic acid]	≥ 80	< 30	≥ 50	≥ 50	< 30	≥ 50	≥ 50	< 30	30 to 50	≥ 50	< 30	30 to 50	≥ 50	≥ 50	≥ 50	≥ 50	≥ 50	≥ 50	≥ 50	≥ 50	inhibition at 10 µM [8]: ≥ 50%; inhibition at 30 µM [8]: ≥ 50%
CC1=C(CC(=O)O)c2cc(F)ccc2/C1=C\c1cccc(OCc2ccccc2)c1 [Compound A4, 2-[(1Z)-5-Fluoro-1-(3-(benzyloxy)benzylidene)-2-methyl-1H-inden-3-yl]-acetic acid]	50 to 80	30 to 50	≥ 50	≥ 50	30 to 50	≥ 50	≥ 50	≥ 50	≥ 50	≥ 50	30 to 50	≥ 50	≥ 50	< 30	< 30	≥ 50	≥ 50	≥ 50	≥ 50	30 to 50	inhibition at 10 µM [8]: ≥ 50%; inhibition at 30 µM [8]: ≥ 50%
CC1=C(CC(=O)O)c2cc(F)ccc2/C1=C\c1cccc(COc2ccccc2)c1 [Compound A5, (Z)-2-(5-Fluoro-2-methyl-1-(3-(phenoxymethyl)benzylidene)-1H-inden-3-yl)acetic acid]	≥ 80	< 30	30 to 50	≥ 50	30 to 50	30 to 50	≥ 50	< 30	30 to 50	≥ 50	< 30	30 to 50	≥ 50	≥ 50	≥ 50	≥ 50	≥ 50	≥ 50	≥ 50	≥ 50	inhibition at 10 µM [8]: ≥ 50%; inhibition at 30 µM [8]: ≥ 50%
CC1=C(CC(=O)O)c2cc(F)ccc2/C1=C\c1cccc(COc2ccc(F)cc2)c1 [Compound A6, 2-[(1Z)-5-Fluoro-1-({3-[(4-fluorophenoxy)methyl]phenyl}methylidene)-2-methyl-1H-inden-3-yl]acetic acid]	≥ 80	30 to 50	≥ 50	≥ 50	< 30	30 to 50	≥ 50	< 30	30 to 50	≥ 50	≥ 50	≥ 50	≥ 50	≥ 50	≥ 50	≥ 50	≥ 50	≥ 50	≥ 50	< 30	inhibition at 10 µM [8]: ≥ 50%; inhibition at 30 µM [8]: ≥ 50%
CC1=C(CC(=O)O)c2cc(F)ccc2/C1=C\c1ccc(CCc2ccccc2)cc1 [Compound A8, 2-[(1Z)-5-Fluoro-2-methyl-1-{[4-(2-phenylethyl)phenyl]methylidene}-1H-inden-3-yl]acetic acid]	≥ 80	30 to 50	≥ 50	≥ 50	< 30	≥ 50	≥ 50	< 30	< 30	≥ 50	< 30	< 30	≥ 50	30 to 50	30 to 50	≥ 50	30 to 50	≥ 50	≥ 50	30 to 50	inhibition at 10 µM [8]: ≥ 50%; inhibition at 30 µM [8]: ≥ 50%
